Measurements from ChEMBL document CHEMBL1201862, “PubChem BioAssay data set” (2004).
The source made the active and inactive calls.

How the values were obtained:
BJ [1] = test: BJ-TERT fibroblast viability loss – cell-based, RAS-independent, luminescence, dose response (AID 1933); type: functional; details: Homo sapiens
[2] = Trypanosoma cruzi growth suppression in host cells – NIH3T3 host cells, beta-gal luminescence, confirmation (AID 2044); type: functional, cell-based;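 also: intracellular parasites grown in NIH/3T3 mouse fibroblasts as host cells; luminescent beta-galactosidase reporter signal from transgenic T. cruzi replicating inside host cells; inhibitors lower the luminescence signal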
BJ [3] = test: BJ-TERT-LT-ST fibroblast viability loss – cell-based, RAS-independent, luminescence, dose response (AID 1935); type: functional; details: Homo sapiens;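 also: BJ fibroblasts immortalized with TERT plus LT and ST oncogenes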
[4] = DRD fibroblast viability loss – cell-based, non-viral oncogenic, luminescence, dose response (AID 1934); type: functional; details: Homo sapiens
HEK293 [5] = test: EBV LMP1 TES2 canonical NF-kB signalling blockers – cell-based, HEK293, luciferase, cherry-pick, dose response (AID 588343); type: functional; details: Homo sapiens
HEK293 [6] = test: SAR Analysis of small molecule inhibitors of T-cell specific antigen receptor-induced NF-kB activation in a HEK-293T cell line using a luminescence assay - Set 2. [Related pubchem assays (depositor defined):AID435003, AID435012, AID489026]; type: functional, cell-based; details: Homo sapiens
[7] = loss of viability in HepG2 cells – cell-based, CellTiter-Glo, cherry-picked, cytotoxicity control for Shn3 inhibitor project, dose response (AID 624134); type: functional
[8] = non-specific 3'UTR reporter inhibition in Clone20-Shn3RL – cell-based, Renilla luciferase, cherry-picked, counter-screen for Shn3 inhibitor project, dose response (AID 624133); type: functional
[9] = biological target: G2/mitotic-specific cyclin-B1 (Homo sapiens, UniProt P14635); test: Counterscreen assay for inhibitors of Wee1 degradation: dose response cell-based assay to identify inhibitors of cyclin B degradation. [Related pubchem assays: 1410, 1321 ]; type: functional
Sequence of G2/mitotic-specific cyclin-B1 (P14635 whole entry): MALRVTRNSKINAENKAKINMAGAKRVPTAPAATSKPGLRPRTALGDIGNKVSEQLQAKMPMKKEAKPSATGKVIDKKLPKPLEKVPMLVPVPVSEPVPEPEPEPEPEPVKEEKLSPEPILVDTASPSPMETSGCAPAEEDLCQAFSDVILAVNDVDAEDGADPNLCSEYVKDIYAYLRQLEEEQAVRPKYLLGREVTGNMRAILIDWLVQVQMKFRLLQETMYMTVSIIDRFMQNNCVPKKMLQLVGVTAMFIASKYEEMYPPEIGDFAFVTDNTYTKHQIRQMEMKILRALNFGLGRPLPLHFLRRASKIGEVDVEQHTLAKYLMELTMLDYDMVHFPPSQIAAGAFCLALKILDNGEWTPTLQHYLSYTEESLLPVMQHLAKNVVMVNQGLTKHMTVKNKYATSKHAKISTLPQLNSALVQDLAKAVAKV

Wee1-like protein kinase = Wee1-like protein kinase (Homo sapiens, UniProt P30291); test: Dose Response Cell-based Assay for Inhibitors of Wee1 Degradation. [Related pubchem assays: 1410, 1321 ]; type: functional
Sequence of Wee1-like protein kinase (P30291 whole entry): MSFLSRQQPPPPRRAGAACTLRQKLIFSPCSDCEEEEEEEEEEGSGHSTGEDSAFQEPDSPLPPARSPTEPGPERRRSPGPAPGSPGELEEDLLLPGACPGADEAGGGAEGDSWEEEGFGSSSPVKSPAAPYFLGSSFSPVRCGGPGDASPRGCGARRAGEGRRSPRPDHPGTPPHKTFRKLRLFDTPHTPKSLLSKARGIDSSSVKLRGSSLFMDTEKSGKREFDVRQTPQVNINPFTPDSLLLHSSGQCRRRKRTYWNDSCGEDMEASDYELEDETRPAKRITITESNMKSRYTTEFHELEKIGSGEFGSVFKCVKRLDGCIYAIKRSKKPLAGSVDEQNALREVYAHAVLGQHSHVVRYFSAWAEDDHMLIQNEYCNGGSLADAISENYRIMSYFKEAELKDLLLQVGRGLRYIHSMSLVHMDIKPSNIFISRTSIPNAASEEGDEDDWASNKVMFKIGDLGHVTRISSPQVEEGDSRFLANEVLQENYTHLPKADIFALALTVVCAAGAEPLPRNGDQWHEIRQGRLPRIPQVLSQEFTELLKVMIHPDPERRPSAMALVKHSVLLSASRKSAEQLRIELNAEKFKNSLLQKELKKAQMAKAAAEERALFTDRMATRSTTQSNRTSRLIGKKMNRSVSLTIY

[10] = biological target: Bifunctional protein GlmU (Mycobacterium tuberculosis, UniProt P9WMN3); test: Inhibitors of Mycobacterial Glucosamine-1-phosphate acetyl transferase (GlmU). Secondary screen.; set-up: species or system Mycobacterium tuberculosis H37Rv
Escherichia coli = test: microbe, parasite or virus in culture
[11] = CCR5-tropic HIV-1 fusion blockers – cell-based, CCR5-tropic Env, dose response (AID 2279); type: functional
Large T antigen = Large T antigen (Simian virus 40, UniProt P03070); test: A confirmatory biochemical assay using the ADP-Hunter methodology, purified TAg, and ATP to quantify activity of synthesized compounds that inhibit the ATPase activity of Tag (3). [Related pubchem assays (depositor defined):AID1903, AID1909, AID2102, AID2501, AID2615, AID2775, AID435001, AID449729]; set-up: species or system Betapolyomavirus macacae
[12] = biological target: Small ubiquitin-related modifier 1 (Homo sapiens, UniProt P63165); test: SUMO1 protein-protein binding blockers, potency – biochemical, FRET, dose response (AID 624383); type: functional; details: read-out: IC50_Mean
Sequence of Small ubiquitin-related modifier 1 (P63165 whole entry): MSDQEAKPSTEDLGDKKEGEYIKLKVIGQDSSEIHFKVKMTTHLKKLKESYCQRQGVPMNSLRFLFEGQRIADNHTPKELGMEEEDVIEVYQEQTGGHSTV

Fatty acid synthase = Fatty acid synthase (Homo sapiens, UniProt P49327); test: inhibition of human FAS-TE enzyme activity – biochemical, kinetic fluorescence intensity, dose response (AID 624326); type: functional;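 also: rate of fluorescence rise from hydrolysis of a fluorogenic O-methyl fluorescein ester substrate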
Sequence of Fatty acid synthase (P49327 whole entry): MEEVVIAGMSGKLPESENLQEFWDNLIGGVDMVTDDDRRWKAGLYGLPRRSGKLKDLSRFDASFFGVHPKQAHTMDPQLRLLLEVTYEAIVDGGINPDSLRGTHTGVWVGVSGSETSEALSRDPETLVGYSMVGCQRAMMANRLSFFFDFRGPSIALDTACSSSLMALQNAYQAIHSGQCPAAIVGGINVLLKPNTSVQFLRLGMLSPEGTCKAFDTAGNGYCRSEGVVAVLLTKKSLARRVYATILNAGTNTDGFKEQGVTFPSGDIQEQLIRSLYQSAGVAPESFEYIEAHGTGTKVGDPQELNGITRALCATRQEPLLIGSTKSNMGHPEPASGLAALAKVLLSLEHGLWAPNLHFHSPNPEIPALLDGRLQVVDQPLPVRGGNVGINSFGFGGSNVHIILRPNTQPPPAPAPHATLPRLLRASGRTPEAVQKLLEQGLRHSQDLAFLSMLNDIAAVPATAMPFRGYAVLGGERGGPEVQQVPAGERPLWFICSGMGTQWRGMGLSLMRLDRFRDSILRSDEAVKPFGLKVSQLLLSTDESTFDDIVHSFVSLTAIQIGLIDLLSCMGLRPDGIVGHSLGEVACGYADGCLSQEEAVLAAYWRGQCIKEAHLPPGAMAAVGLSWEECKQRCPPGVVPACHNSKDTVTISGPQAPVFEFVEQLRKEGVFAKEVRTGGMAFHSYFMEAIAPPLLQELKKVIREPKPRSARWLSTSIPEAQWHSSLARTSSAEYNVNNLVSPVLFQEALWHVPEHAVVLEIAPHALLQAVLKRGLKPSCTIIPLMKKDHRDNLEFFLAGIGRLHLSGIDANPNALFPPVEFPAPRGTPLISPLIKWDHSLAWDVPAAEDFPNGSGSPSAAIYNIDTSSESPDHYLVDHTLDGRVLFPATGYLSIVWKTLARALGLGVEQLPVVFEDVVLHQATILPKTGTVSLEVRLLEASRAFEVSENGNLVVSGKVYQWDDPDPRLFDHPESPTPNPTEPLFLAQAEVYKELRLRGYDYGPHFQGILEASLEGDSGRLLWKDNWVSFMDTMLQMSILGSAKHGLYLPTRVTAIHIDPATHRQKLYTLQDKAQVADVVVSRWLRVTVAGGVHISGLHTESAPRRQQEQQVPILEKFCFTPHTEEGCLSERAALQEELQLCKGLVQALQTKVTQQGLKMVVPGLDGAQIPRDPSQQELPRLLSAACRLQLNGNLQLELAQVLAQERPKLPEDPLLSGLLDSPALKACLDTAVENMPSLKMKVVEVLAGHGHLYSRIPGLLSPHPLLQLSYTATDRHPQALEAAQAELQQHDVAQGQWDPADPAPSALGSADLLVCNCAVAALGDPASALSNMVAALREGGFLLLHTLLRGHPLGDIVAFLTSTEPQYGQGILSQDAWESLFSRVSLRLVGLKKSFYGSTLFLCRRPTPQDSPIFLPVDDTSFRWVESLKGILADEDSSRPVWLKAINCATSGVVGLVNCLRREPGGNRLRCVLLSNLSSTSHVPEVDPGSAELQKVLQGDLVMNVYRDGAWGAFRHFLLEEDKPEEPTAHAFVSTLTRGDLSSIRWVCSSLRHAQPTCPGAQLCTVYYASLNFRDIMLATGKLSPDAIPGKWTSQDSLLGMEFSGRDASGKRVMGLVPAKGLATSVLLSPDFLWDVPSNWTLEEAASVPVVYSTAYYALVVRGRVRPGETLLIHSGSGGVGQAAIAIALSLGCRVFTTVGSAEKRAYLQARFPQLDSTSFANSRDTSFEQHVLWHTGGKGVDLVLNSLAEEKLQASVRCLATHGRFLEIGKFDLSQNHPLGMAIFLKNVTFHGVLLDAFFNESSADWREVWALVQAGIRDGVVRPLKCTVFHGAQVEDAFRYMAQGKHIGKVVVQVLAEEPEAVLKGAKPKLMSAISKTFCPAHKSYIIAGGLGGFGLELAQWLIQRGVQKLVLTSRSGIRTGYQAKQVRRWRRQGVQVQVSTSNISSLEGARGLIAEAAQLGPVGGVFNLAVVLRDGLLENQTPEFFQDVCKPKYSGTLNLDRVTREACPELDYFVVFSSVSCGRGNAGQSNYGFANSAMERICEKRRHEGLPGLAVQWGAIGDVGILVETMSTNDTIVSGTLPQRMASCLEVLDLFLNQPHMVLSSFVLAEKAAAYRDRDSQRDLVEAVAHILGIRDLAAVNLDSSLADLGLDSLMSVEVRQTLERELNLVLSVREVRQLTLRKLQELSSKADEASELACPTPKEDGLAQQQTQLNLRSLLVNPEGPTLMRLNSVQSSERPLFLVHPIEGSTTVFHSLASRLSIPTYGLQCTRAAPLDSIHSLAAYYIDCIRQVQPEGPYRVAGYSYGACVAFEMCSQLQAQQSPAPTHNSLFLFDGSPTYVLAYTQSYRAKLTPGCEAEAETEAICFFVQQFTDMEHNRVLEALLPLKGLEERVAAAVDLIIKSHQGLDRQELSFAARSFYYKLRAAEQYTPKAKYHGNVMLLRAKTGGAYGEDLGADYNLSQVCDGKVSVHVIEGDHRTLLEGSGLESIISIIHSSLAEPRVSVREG

[13] = RKO cell viability reduction, dose response, CellTiter-Glo luminescence (AID 1117322); type: functional
[14] = cytotoxicity toward HCT116 cells – cell-based, CellTiter-Glo luminescence, IC50, dose response (AID 1117332); type: functional; details: HCT-116
[15] = SNU-C1 cell viability reduction, dose response, CellTiter-Glo luminescence (AID 1117323); type: functional, cell-based
[16] = cytotoxicity toward Colo320 cells – cell-based, CellTiter-Glo luminescence, IC50, dose response (AID 1117334); type: functional; details: COLO 320
[17] = Reduced DLD-1 viability, concentration-response, CellTiter-Glo luminescence (AID 1117352); type: functional
SUMO-activating enzyme = SUMO-activating enzyme (Homo sapiens, UniProt Q9UBT2); test: blockers of SAE1/SAE2–UBC9 SUMO transfer – biochemical, HTRF, uHTS, primary screen (AID 2006); type: protein-complex assay
Sequence of SUMO-activating enzyme (Q9UBE0 whole entry): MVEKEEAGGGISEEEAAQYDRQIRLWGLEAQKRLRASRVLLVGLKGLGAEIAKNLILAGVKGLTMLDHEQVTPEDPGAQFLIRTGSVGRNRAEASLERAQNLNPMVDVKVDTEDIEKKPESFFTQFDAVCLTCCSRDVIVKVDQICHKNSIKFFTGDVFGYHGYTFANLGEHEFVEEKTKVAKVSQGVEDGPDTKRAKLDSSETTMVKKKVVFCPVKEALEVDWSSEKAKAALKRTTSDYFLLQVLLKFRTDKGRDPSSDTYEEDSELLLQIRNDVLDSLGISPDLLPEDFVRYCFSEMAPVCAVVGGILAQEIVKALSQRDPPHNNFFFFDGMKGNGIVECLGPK
Sequence of SUMO-activating enzyme (Q9UBT2 whole entry): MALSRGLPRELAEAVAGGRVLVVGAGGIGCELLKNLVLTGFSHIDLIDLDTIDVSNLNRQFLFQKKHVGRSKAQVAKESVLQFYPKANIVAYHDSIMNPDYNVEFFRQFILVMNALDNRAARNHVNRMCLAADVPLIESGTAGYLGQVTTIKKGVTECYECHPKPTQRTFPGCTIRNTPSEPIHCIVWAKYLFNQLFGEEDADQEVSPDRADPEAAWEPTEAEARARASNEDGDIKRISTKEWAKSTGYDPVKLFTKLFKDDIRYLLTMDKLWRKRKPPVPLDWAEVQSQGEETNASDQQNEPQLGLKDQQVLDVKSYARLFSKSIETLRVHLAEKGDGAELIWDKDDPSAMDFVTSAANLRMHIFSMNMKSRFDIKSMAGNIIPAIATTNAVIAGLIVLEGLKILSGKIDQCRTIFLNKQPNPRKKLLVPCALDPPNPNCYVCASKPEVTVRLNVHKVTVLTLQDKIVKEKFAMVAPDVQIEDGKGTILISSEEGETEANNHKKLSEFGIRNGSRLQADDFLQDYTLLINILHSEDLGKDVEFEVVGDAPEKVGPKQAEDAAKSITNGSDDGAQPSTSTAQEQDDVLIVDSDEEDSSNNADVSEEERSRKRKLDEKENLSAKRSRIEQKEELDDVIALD

[18] = biological target: T1, Sentrin-specific protease 6 (Homo sapiens, UniProt Q9GZR1); type: functional;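 also: Luminescence-based dose-response confirmatory assay of SENP6 inhibition, following up an ultra-high-throughput screen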
T1 sequence (Q9GZR1 whole entry): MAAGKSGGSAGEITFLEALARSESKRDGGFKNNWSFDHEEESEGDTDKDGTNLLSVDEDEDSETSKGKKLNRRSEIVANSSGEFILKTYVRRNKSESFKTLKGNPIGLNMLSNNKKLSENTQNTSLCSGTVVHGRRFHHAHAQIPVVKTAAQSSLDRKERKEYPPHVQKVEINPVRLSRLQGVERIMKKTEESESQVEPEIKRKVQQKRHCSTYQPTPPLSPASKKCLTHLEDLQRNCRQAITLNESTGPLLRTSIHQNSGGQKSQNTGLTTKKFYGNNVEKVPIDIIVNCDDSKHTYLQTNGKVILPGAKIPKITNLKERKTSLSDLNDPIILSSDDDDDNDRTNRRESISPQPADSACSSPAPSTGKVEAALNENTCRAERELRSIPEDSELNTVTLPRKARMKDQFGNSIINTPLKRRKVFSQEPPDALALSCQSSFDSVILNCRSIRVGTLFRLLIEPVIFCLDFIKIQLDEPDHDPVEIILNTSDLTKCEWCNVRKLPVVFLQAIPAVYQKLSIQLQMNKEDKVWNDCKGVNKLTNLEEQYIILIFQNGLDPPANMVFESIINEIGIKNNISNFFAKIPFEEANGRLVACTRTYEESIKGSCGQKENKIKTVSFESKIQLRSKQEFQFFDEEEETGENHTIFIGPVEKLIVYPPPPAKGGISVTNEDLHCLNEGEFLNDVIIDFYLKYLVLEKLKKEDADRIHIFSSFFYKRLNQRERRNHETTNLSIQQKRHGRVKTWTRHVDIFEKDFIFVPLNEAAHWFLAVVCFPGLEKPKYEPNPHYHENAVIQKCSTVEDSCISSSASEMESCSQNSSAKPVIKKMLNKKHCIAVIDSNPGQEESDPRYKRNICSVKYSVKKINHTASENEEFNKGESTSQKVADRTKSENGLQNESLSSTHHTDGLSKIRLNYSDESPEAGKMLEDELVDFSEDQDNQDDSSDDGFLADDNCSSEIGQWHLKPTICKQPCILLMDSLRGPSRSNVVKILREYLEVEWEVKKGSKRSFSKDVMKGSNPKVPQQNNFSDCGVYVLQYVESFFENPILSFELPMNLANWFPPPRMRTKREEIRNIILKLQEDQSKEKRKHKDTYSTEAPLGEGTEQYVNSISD

[19] = biological target: T2, Sentrin-specific protease 8 (Homo sapiens, UniProt Q96LD8); type: functional;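 also: luminescence read-out of SENP8 inhibition, dose-response confirmation following an ultra-high-throughput screen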
T2 sequence (Q96LD8 whole entry): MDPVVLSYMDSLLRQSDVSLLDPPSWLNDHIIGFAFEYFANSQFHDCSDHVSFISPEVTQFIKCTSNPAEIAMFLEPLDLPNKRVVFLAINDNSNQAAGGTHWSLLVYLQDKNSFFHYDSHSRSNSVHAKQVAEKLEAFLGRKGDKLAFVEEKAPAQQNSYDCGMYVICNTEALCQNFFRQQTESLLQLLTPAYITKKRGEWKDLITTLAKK

For CCCC(=O)NC(c1ccc(C(C)C)cc1)c1ccc2cccnc2c1O (centres undefined), the EC50 (BJ [1]) was 2300 nM (active), the EC50 [2] was 227 nM (active) and the EC50 (BJ [3]) was 2100 nM (inconclusive). The EC50 [4] was 2350 nM (active), the AC50 (HEK293 [5]) was 5040 nM (active) and the IC50 (HEK293 [6]) was 3760 nM (active). The AC50 [7] was 1910 nM (active) and the AC50 [8] was 938 nM (active).

For O=[N+]([O-])c1ccc(Sc2cccc[n+]2[O-])c2nonc12, the EC50 [9] was > 49700 nM (not active), the EC50 (Wee1-like protein kinase) was > 1840 nM (active) and the IC50 [10] was 72600 nM (active). For the same molecule, the AC50 (Escherichia coli) was 5530 nM (active).

With Oc1c(Cl)cc(Cl)c(Cl)c1Cc1c(O)c(Cl)cc(Cl)c1Cl [HEXACHLOROPHENE] the IC50 [11] was 970 nM (active), the IC50 (Large T antigen) was 34500 nM (active) and the IC50 [12] was 38900 nM (inactive). For the same molecule, the IC50 (Fatty acid synthase) was 5680 nM (active), the IC50 [13] was 108 nM (active) and the IC50 [14] was 31.2 nM (active). The IC50 [15] was 32 nM (active), the IC50 [16] was 57.2 nM (active) and the IC50 [17] was 15.7 nM (active).

In the case of N#Cc1c(N2CCCCC2)nc(N)c2c(N)nc(SCC(=O)O)cc12, the IC50 (SUMO-activating enzyme) is reported as 3920 nM (active), the IC50 [18] is reported as 8260 nM (active) and the IC50 [19] is reported as 10600 nM (active).
